US10889565B2, “4-hydroxy-3-sulfonylpyridin-2(1H)-ones as APJ receptor agonists” (BRISTOL-MYERS SQUIBB COMPANY, priority 2016, dated 2021)

Biological target: T1, human APJ receptor (Homo sapiens, UniProt P35414)
T1 construct: expressed in transfected cells
T1 sequence (P35414 1-380): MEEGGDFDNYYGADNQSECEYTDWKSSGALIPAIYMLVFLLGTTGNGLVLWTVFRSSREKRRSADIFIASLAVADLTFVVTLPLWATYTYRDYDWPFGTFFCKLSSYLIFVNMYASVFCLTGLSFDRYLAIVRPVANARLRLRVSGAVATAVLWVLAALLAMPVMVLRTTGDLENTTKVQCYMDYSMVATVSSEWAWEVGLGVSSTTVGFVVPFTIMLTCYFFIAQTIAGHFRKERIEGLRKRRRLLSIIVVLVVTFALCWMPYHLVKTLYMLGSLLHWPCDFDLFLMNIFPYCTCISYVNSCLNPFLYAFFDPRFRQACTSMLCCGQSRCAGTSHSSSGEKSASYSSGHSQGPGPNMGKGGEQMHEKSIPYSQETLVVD
Test: Intracellular cAMP accumulation assay (APJ hcAMP, HTRF)
Format: cell-based
Conditions: HEK293 cells stably expressing human APJ receptor; inhibition of forskolin-mediated cAMP production; read-out: Human APJ cAMP EC50 Potency range
Method: Intracellular cAMP Accumulation Assay
HEK293 cells stably expressing human APJ receptor were used to assess the activity of compounds. Cultured cells were detached and resuspended in the cAMP Homogeneous Time-Resolved Fluorescence (HTRF) assay buffer (Cisbio cat; #62AM4PEJ). The assay was performed in 384-well assay plates (Perkin-Elmer; cat #6008289) according to assay protocol provided by the manufacturer. Serial dilutions of a compound together with assay buffer containing […] IBMX and 2 μM forskolin were added to each well containing 5,000 cells and incubated for 30 minutes at room temperature. Subsequently, cAMP D2 reagent was added in the lysis buffer followed by the EuK antibody (Cisbio; cat #62AM4PEJ) and incubated for 60 min. The fluorescence emission ratio was measured using fluorometer. The intracellular cAMP concentrations (compound-stimulated inhibition of forskolin-mediated cAMP production) were calculated by extrapolation from a standard curve using known cAMP concentrations. The EC50 values were obtained by fitting the data to a sigmoidal concentration-response curve with variable slope. The maximal achievable inhibition of forskolin-induced cAMP levels (Ymax) for each compound was expressed as relative percentage of inhibition attained using pyroglutamated apelin-13 ((Pyr1)apelin-13) peptide, which was set to 100%.
The examples disclosed below were tested in the APJ in vitro assays described above and were found having human APJ cyclic AMP (hcAMP) activity. The EC50 value of each compound is presented at the end of the example description.
The biological activity of the exemplified compounds of this invention determined by the assay described above is shown at the end of each example.

Row | Structure (SMILES) | EC50 [nM]
1 | CCCCc1[nH]c(=O)c(S(=O)(=O)c2ccccc2)c(O)c1-c1c(OC)cccc1OC [Example 10, 6-butyl-5-(2,6-dimethoxy-phenyl)-4-hydroxy-3-(phenyl-sulfonyl) pyridin-2(1H)-one] | 0.01 to 10
2 | CCOCc1[nH]c(=O)c(S(=O)(=O)c2ccc(C3CC3)cc2)c(O)c1-c1c(OC)cccc1OC [Example 11, 3-((4-cyclo-propylphenyl)sulfonyl)-5-(2,6-dimethoxy-phenyl)-6-(ethoxymethyl)-4-hydroxy-pyridin-2(1H)-one] | 0.01 to 10
3 | CCOCc1[nH]c(=O)c(S(=O)(=O)c2ccc(-c3ccc(F)nc3)cc2)c(O)c1-c1c(OC)cccc1OC [Example 12, 5-(2,6-dimethoxy-phenyl)-6-(ethoxymethyl)-3-((4-(6-fluoro-pyridin-3-yl)phenyl)sulfonyl)-4-hydroxy-pyridin-2(1H)-one] | 0.01 to 10
4 | CCCCc1[nH]c(=O)c(S(=O)(=O)c2ccc(-c3ccc(F)cc3)cc2)c(O)c1-c1c(OC)cccc1OC [Example 13, 6-butyl-5-(2,6-dimethoxy-phenyl)-3-((4′-fluoro-[1,1′-biphenyl]-4-yl)sulfonyl)-4-hydroxy-pyridin-2(1H)-one] | 10 to 100
5 | CCOCc1[nH]c(=O)c(S(=O)(=O)c2ccc(Br)cc2)c(O)c1-c1c(OC)cccc1OC [Example 14, 3-((4-bromophenyl)sulfonyl)-5-(2,6-dimethoxy-phenyl)-6-(ethoxymethyl)-4-hydroxy-pyridin-2(1H)-one] | 10 to 100
6 | CCCCc1[nH]c(=O)c(S(=O)(=O)c2ccccc2Br)c(O)c1-c1c(OC)cccc1OC [Example 15, 3-((2-bromophenyl)sulfonyl)-6-butyl-5-(2,6-dimethoxy-phenyl)-4-hydroxy-pyridin-2(1H)-one] | 10 to 100
7 | COc1cccc(OC)c1-c1c(-c2ccc(F)cc2)[nH]c(=O)c(S(=O)(=O)c2ccc(-c3ccnc(F)c3C)cc2)c1O [Example 16, 5-(2,6-dimethoxy-phenyl)-3-((4-(2-fluoro-3-methyl-pyridin-4-yl)phenyl)sulfonyl)-6-(4-fluoro-phenyl)-4-hydroxy-pyridin-2(1H)-one] | 0.01 to 10
8 | COc1cccc(OC)c1-c1c(-c2ccc(F)cc2)[nH]c(=O)c(S(=O)(=O)c2ccc(-c3ccc(F)nc3C)cc2)c1O [Example 17, 5-(2,6-dimethoxy-phenyl)-3-((4-(6-fluoro-2-methyl-pyridin-3-yl)phenyl)sulfonyl)-6-(4-fluoro-phenyl)-4-hydroxy-pyridin-2(1H)-one] | 0.01 to 10
9 | CCCCc1[nH]c(=O)c(S(=O)(=O)c2cccc[n+]2[O-])c(O)c1-c1c(OC)cccc1OC [Example 18, 6-butyl-5-(2,6-dimethoxy-phenyl)-4-hydroxy-3-((1-hydroxy-1l4-pyridin-2-yl)sulfonyl) pyridin-2(1H)-one] | 100 to 300
10 | CCCCc1[nH]c(=O)c(S(=O)(=O)c2ccc(-n3cc(Cl)ccc3=O)cc2)c(O)c1-c1c(OC)cccc1OC [Example 19, 6-Butyl-3-((4-(5-chloro-2-oxopyridin-1 (2H)-yl)phenyl)sulfonyl)-5-(2,6-dimethoxyphenyl)-4-hydroxypyridin-2(1H)-one] | 0.01 to 10
11 | CCCCc1[nH]c(=O)c(S(=O)(=O)c2ccc(-n3cc(C)ccc3=O)cc2)c(O)c1-c1c(OC)cccc1OC [Example 20, 6-butyl-5-(2,6-dimethoxy-phenyl)-4-hydroxy-3-((4-(5-methyl-2-oxopyridin-1(2H)-yl)phenyl)sulfonyl) pyridin-2(1H)-one] | 0.01 to 10
12 | CCOCc1[nH]c(=O)c(S(=O)(=O)c2ccc(-n3cc(Cl)ccc3=O)cc2)c(O)c1-c1c(OC)cccc1OC [Example 21, 3-((4-(5-chloro-2-oxopyridin-1(2H)-yl)phenyl)sulfonyl)-5-(2,6-dimethoxy-phenyl)-6-(ethoxymethyl)-4-hydroxy-pyridin-2(1H)-one] | 0.01 to 10
13 | CCCCc1[nH]c(=O)c(S(=O)(=O)c2ccc(-n3ccccc3=O)cc2)c(O)c1-c1c(OC)cccc1OC [Example 22, 6-butyl-5-(2,6-dimethoxy-phenyl)-4-hydroxy-3-((4-(2-oxopyridin-1(2H)-yl)phenyl)sulfonyl) pyridin-2(1H)-one] | 0.01 to 10
14 | COc1cccc(OC)c1-c1c(-c2ccc(F)cc2)[nH]c(=O)c(S(=O)(=O)c2ccc(-n3cc(Cl)ccc3=O)cc2)c1O [Example 23, 3-((4-(5-chloro-2-oxopyridin-1(2H)-yl)phenyl)sulfonyl)-5-(2,6-dimethoxy-phenyl)-6-(4-fluorophenyl)-4-hydroxy-pyridin-2(1H)-one] | 0.01 to 10
15 | CCOCc1[nH]c(=O)c(S(=O)(=O)c2ccc(-n3cc(C)ccc3=O)cc2)c(O)c1-c1c(OC)cccc1OC [Example 24, 5-(2,6-dimethoxy-phenyl)-6-(ethoxymethyl)-4-hydroxy-3-((4-(5-methyl-2-oxopyridin-1(2H)-yl)phenyl)sulfonyl) pyridin-2(1H)-one] | 0.01 to 10

Next, values leading:

Row | EC50 [nM] | Structure (SMILES)
16 | 0.01 to 10 | CCCCc1[nH]c(=O)c(S(=O)(=O)c2ccc(-c3cccnc3OC)cc2)c(O)c1-c1c(OC)cccc1OC [Example 2, 6-butyl-5-(2,6-dimethoxy-phenyl)-4-hydroxy-3-((4-(2-methoxy-pyridin-3-yl)phenyl)sulfonyl) pyridin-2(1H)-one]
17 | 0.01 to 10 | CCCCc1[nH]c(=O)c(S(=O)(=O)c2ccc(-c3ccncc3C)cc2)c(O)c1-c1c(OC)cccc1OC [Example 3, 6-butyl-5-(2,6-dimethoxy-phenyl)-4-hydroxy-3-((4-(3-methyl-pyridin-4-yl)phenyl)sulfonyl) pyridin-2(1H)-one]
18 | 0.01 to 10 | CCCCc1[nH]c(=O)c(S(=O)(=O)c2ccc(-c3cncc(F)c3)cc2)c(O)c1-c1c(OC)cccc1OC [Example 4, 6-butyl-5-(2,6-dimethoxy-phenyl)-3-((4-(5-fluoro-pyridin-3-yl)phenyl)sulfonyl)-4-hydroxy-pyridin-2(1H)-one]
19 | 0.01 to 10 | CCCCc1[nH]c(=O)c(S(=O)(=O)c2ccc(-c3ccc(F)nc3C)cc2)c(O)c1-c1c(OC)cccc1OC [Example 5, 6-butyl-5-(2,6-dimethoxy-phenyl)-3-((4-(6-fluoro-2-methyl-pyridin-3-yl)phenyl)sulfonyl)-4-hydroxy-pyridin-2(1H)-one]
20 | 0.01 to 10 | CCCCc1[nH]c(=O)c(S(=O)(=O)c2ccc(-c3ccc(F)nc3)cc2)c(O)c1-c1c(OC)cccc1OC [Example 6, 6-butyl-5-(2,6-dimethoxy-phenyl)-3-((4-(6-fluoro-pyridin-3-yl)phenyl)sulfonyl)-4-hydroxy-pyridin-2(1H)-one]
21 | 0.01 to 10 | CCCCc1[nH]c(=O)c(S(=O)(=O)c2ccc(C3CC3)cc2)c(O)c1-c1c(OC)cccc1OC [Example 7, 6-butyl-3-((4-cyclo-propylphenyl)sulfonyl)-5-(2,6-dimethoxy-phenyl)-4-hydroxy-pyridin-2(1H)-one]
22 | 0.01 to 10 | CCCCc1[nH]c(=O)c(S(=O)(=O)c2ccc(NC(=O)OC(C)(C)C)cc2)c(O)c1-c1c(OC)cccc1OC [Example 8, tert-butyl (4-((6-butyl-5-(2,6-dimethoxy-phenyl)-4-hydroxy-2-oxo-1,2-dihydro-pyridin-3-yl)sulfonyl)phenyl) carbamate]
23 | 0.01 to 10 | CCOCc1[nH]c(=O)c(S(=O)(=O)c2ccc(-c3ccc(F)cc3)cc2)c(O)c1-c1c(OC)cccc1OC [Example 9, 5-(2,6-dimethoxy-phenyl)-6-(ethoxymethyl)-3-((4′-fluoro-[1,1′-biphenyl]-4-yl)sulfonyl)-4-hydroxypyridin-2(1H)-one]
